Measured values: patent US20260335323A1, “CHIMERIC MOLECULE” (UCL Business Ltd, priority 2023, published 2026)

Experiments:
SH-SY5Y cells [1] = assay: mito-mKeima mitophagy assay (mitophagy index); type: cell-based, human; conditions: for enhancement of mitophagy: co-treating with excess TSPO ligand
Description: (§1) FIG. 1. The structure of AUTAC-4 is shown in (A). (B) Representative images of SH-SY5Y cells stably expressing the mito-mKeima reporter treated with AUTAC4 for 18 h. Nuclei were stained with Hoechst 33342, healthy mitochondria are shown in green and mitochondria in lysosomes are shown in red. (C-E) Fold change in mitophagy index over time after treatment with increasing concentrations of AUTAC4 under treatment with DMSO (C), 3 mM CCCP (D) or 0.1/0.1 mM antimycin/oligomycin (E), also for 18 h. (F) Quantification of changes in mitochondrial membrane potential over time (DYm) by measuring the TMRM relative fluorescence intensity (RFI) treated with DMSO, 10 mM CCCP, 10 mM and 20 mM AUTAC4. Normalised to number of nuclei. (G) Representative western blot of SH-SY5Y cells treated with DMSO, 10 mM AUTAC4 or 10 mM AUTAC4+0.1/0.1 mM antimycin/oligomycin for 18 h and, probed for p62, b-actin and Tom20. Quantifications of western blot for changes in Tom20 and p62 levels shown in (H) and (I), respectively. (J) Representative images of PANC-1 cells stably expressing the mCherry-EGFP-LC3 tandem reporter. Nuclei stained with Hoechst 33342, autophagosomes are shown in the EGFP channel and autolysosomes in the mCherry channel. Fold change in the number of autophagosome (K) and autolysosome (L) puncta in AUTAC4 treated cells. All data shown are mean±SEM, n=3, *p<0.05, *** p<0.001. For mito-mKeima experiments, statistics were calculated by Two-way ANOVA with Tukey's multiple comparisons test. For western blots, TMRM and LC3 tandem reporter assay, statistics were calculated with one-way ANOVA with Tukey's multiple comparisons test.
FIG. 5. ULKTACs induce potent mitophagy after colocalisation and local activation of ULK1 at mitochondria (A) Representative immunofluorescence of PANC-1 cells treated with CCCP, ULKTACs or both and immunostained for TOM20 and ULK1 and counterstained with Alexa 488 and 568, respectively. Nuclei stained with Hoechst 33342. (B) Quantification of the colocalised ULK1 to TOM20 spot area of PANC-1 cells treated with DMSO, 5 mM CCCP, 10 mM BL-918, 10 mM BL-918+5 mM CCCP, […] NZ-65, […] NZ-65+5 mM CCCP, […] NZ-66, […] NZ-66+5 mM CCCP, 50 mM TSPO ligand, […] NZ-65+50 mM TSPO ligand, […] NZ-66+50 mM TSPO ligand. (C) Western blot of SH-SY5Y cells treated with 1 mM ULKTACs, 5 mM CCCP or both, probed for Mfn2, b-Actin and Tom20—quantifications are shown in (D) for Mfn2, normalised to Actin. (E) Representative images of SH-SY5Y cells stably expressing the mito-mKeima reporter treated with 3 mM CCCP, NZ-65 or both. Nuclei were stained with Hoechst 33342, healthy mitochondria are shown in green and mitochondria in lysosomes are shown in red. Fold change in mitophagy index over time after treatment for the indicated timepoints with title treatments alone or co-treated with 1.25 mM ULKTAC or 10 mM ULKTAC NZ-65 (F) or NZ-66 (G). Fold change in mitophagy index over time after treatment for the indicated timepoints with DMSO, 1.25 µM NZ-65 or NZ-66±50 µM TSPO ligand under co-treatment with DMSO (H) or 3 μM CCCP (I). […] Normalised to number of nuclei. All data shown are mean±SEM, n=3, *p<0.05, ** p<0.01, *** p<0.001. For colocalisation and TMRM experiments, one-way ANOVA with Dunnett's multiple comparisons test. For western blots, one-way ANOVA with Tukey's multiple comparisons test and unpaired t-test. For mito-mKeima experiment, two-way ANOVA with Tukey's multiple comparisons test.
SH-SY5Y stably expressing mito-mKeima were produced as previously described28,29. Cells were seeded in 384 well CellCarrier Ultra plates (PerkinElmer) 24 hours before treatment in complete media without phenol red. Cells were treated with increasing concentrations of BL-918, AUTAC4, NZ-65 or NZ-66, 24 hours prior to treatment with increasing concentrations of mitochondrial uncouplers to cause mitochondrial insult. SH-SY5Y mitochondria were treated with DMSO, 3 μM CCCP, 10 μM CCCP, 0.1/0.1 μM antimycin/oligomycin (AO), 0.5/0.5 µM AO or 1/1 μM AO. […]

SH-SY5Y cells [2] = assay: TMRM assay of mitochondrial membrane potential; type: cell-based, human
Description: as §1, with “All data shown are mean±SEM, n=3, *p<0.05, *** p<0.001.” left out
FIG. 5. […] (B) Quantification of the colocalised ULK1 to TOM20 spot area of PANC-1 cells treated with DMSO, 5 mM CCCP, 10 mM BL-918, 10 mM BL-918+5 mM CCCP, […] NZ-65, […] NZ-65+5 mM CCCP, […] NZ-66, […] NZ-66+5 mM CCCP, 50 mM TSPO ligand, […] NZ-65+50 mM TSPO ligand, […] NZ-66+50 mM TSPO ligand. (C) Western blot of SH-SY5Y cells treated with 1 mM ULKTACs, 5 mM CCCP or both, probed for Mfn2, b-Actin and Tom20—quantifications are shown in (D) for Mfn2, normalised to Actin. […]

[3] = co-treatment with antimycin/oligomycin

`O=C(Nc1ccc(F)cc1F)[C@H](NC(=S)Nc1cc(C(F)(F)F)cc(C(F)(F)F)c1)c1ccccc1` [BL-918, reference compound] was tested, and the induction of mitophagy (SH-SY5Y cells [1]; compound alone, higher concentrations) was “induction of mitophagy only at higher concentrations” and the “mitochondrial membrane potential (TMRM)” value (SH-SY5Y cells [2]) was “depolarisation of the outer mitochondrial membrane at higher concentrations”.
In the case of `O=C(Nc1cc(C(F)(F)F)cc(C(F)(F)F)c1)N[C@@H](C(=O)Nc1ccc(F)cc1F)c1ccc(OCc2cn(CCOCCOCCNC(=O)C(=O)c3c(-c4ccccc4)[nH]c4ccccc34)nn2)cc1` [NZ-65, (R)-2-(3-(3,5-bis(trifluoromethyl)phenyl)ureido)-N-(2,4-difluorophenyl)-2-(4-((1-(2-(2-(2-(2-oxo-2-(2-phenyl-1H-indol-3-yl)acetamido)ethoxy)ethoxy)ethyl)-1H-1,2,3-triazol-4-yl)methoxy)phenyl) acetamide], the enhancement of mitophagy (SH-SY5Y cells [1]) is reported as “restricts enhancement of mitophagy”, the “enhancement of induced mitophagy” value (SH-SY5Y cells [1]; co-treatment with CCCP) is reported as “remarkably strong increases in mitophagy” and the “enhancement of induced mitophagy” value (SH-SY5Y cells [1]; [3]) is reported as “remarkably strong increases in mitophagy”. The “mitochondrial membrane potential (TMRM)” value (SH-SY5Y cells [2]) was “neither NZ-65 nor NZ-66 showed any effect”.
`O=C(Nc1cc(C(F)(F)F)cc(C(F)(F)F)c1)N[C@@H](C(=O)Nc1ccc(F)cc1F)c1ccc(OCc2cn(CCCCCCNC(=O)C(=O)c3c(-c4ccccc4)[nH]c4ccccc34)nn2)cc1` [NZ-66, (R)-2-(3-(3,5-bis(trifluoromethyl)phenyl)ureido)-N-(2,4-difluorophenyl)-2-(4-((1-(6-(2-oxo-2-(2-phenyl-1H-indol-3-yl)acetamido)hexyl)-1H-1,2,3-triazol-4-yl)methoxy)phenyl) acetamide] was tested, and the enhancement of mitophagy (SH-SY5Y cells [1]) was “restricts enhancement of mitophagy”, the “enhancement of induced mitophagy” value (SH-SY5Y cells [1]; co-treatment with CCCP) was “remarkably strong increases in mitophagy” and the “enhancement of induced mitophagy” value (SH-SY5Y cells [1]; [3]) was “remarkably strong increases in mitophagy”. For the same compound, the “mitochondrial membrane potential (TMRM)” value (SH-SY5Y cells [2]) was “neither NZ-65 nor NZ-66 showed any effect”.
